Experimental findings from patent US9611262B2, “Substituted 2-azabicycles and their use as orexin receptor modulators” (JANSSEN PHARMACEUTICA NV, priority 2014, dated 2017) are described below.

One assay concerns the target human orexin 1 receptor (Homo sapiens (Human), UniProt O43613). Briefly: Human orexin 1 receptor radioligand binding (competitive). Particulars: CHO cells stably expressing human orexin 1 receptor; 4 nM radioligand; averages of 2-20 runs; read-out: hOX1 Ki. On the procedure:
The in vitro affinity of the compounds of the invention for the rat/human orexin 1 and human orexin 2 receptors was determined by competitive radioligand binding using [^3H](1-(5-(2-fluoro-phenyl)-2-methyl-thiazol-4-yl)-1-((S)-2-(5-phenyl-(1,3,4)oxadiazol-2-ylmethyl)-pyrrolidin-1-yl)-methanone) (Langmead et al., 2004) and [^3H]EMPA (n-ethyl-2[96-methoxy-pyridin-3-yl)-(toluene-2-sulfonyl)-amino]-N-pyridin-3-ylmethyl acetamide), respectively (Langmead et al., 2004, British Journal of Pharmacology 141:340-346; Malherbe et al., 2004, British Journal of Pharmacology 156:1326-41).
Data are analyzed using pc-Sandy macro and graphed on Graphpad Prism 5. For analysis, each concentration point is averaged from triplicate values and the averaged values are plotted on Graphpad Prism. The IC50 was determined by applying the following equation (GraphPad Prism 5.0, San Diego) for one site competition where X=log (concentration) and Y=specific binding. Top denotes the total [^3H]— (1-(5-(2-fluoro-phenyl)-2-methyl-thiazol-4-yl)-1-((S)-2-(5-phenyl-(1,3,4)oxadiazol-2-ylmethyl)-pyrrolidin-1-yl)-methanone) binding, bottom denotes the nonspecific [^3H]— (1-(5-(2-fluoro-phenyl)-2-methyl-thiazol-4-yl)-1-((S)-2-(5-phenyl-(1,3,4)oxadiazol-2-ylmethyl)-pyrrolidin-1-yl)-methanone) binding. Graphpad Prism calculates Ki value from IC50 and the pre-determined Kd values for [^3H]— (1-(5-(2-fluoro-phenyl)-2-methyl-thiazol-4-yl)-1-((S)-2-(5-phenyl-(1,3,4)oxadiazol-2-ylmethyl)-pyrrolidin-1-yl)-methanone) and [^3H]-EMPA. The Ki for each compound is then uploaded into 3DX. Each run comprises individual compounds in triplicate. The data in Table 1 and Table 2 represent averages from between 2-20 runs
Rat and Human Orexin 1 Receptor Radioligand Binding Studies
Human Embryonic Kidney 293 cells (HEK293) stably expressing rat orexin 1 receptor (Genebank accession number NM_001525) or Chinese ovary cells (CHO) stably expressing human orexin 1 receptor (Genebank accession number […]) were grown to confluency in DMEM (Hyclone, cat # SH30022), 10% FBS, 1× Pen/Strep, 1× sodium pyruvate, 10 mM HEPES, 600 μg/mL G418 and DMEM/F12 (Gibco, Cat #11039), 10% FBS, 1× Pen/Strep, 600 μg/mL G418 media, respectively on 150 cm^2 tissue culture plates, washed with 5 mM EDTA in PBS (HyClone Dulbecco's Phosphate Buffered Saline 1× with Calcium and Magnesium, Cat # SH30264.01, hereafter referred to simply as PBS) and scraped into 50 ml tubes. After centrifugation (2K×G, 5 min at 4° C.), the supernatant was aspirated and the pellets frozen and stored at −80° C. Cells were resuspended in PBS in the presence of 1 tablet of protease inhibitor cocktail (Roche, Cat. #11836145001) per 50 mL. […] Competition binding experiments in 96 well polypropylene plates were performed using [^3H]— (1-(5-(2-fluoro-phenyl)-2-methyl-thiazol-4-yl)-1-((S)-2-(5-phenyl-(1,3,4)oxadiazol-2-ylmethyl)-pyrrolidin-1-yl)-methanone) (Moraveck Corporation, specific activity=35.3 Ci/mmol), diluted to a 10 nM concentration in PBS (4 nM final). Compounds were solubilized in 100% DMSO (Acros Organics, Cat. #61042-1000) and tested over a range of 7 concentrations (from 0.1 nM to 10 μM). The final concentration of DMSO in the reactions is equal to or less than 0.1%. Total and nonspecific binding was determined in the absence and presence of 10 μM almorexant. The total volume of each reaction is 200 μL (20 μL of diluted compounds, 80 μL of [^3H]— (1-(5-(2-fluoro-phenyl)-2-methyl-thiazol-4-yl)-1-((S)-2-(5-phenyl-(1,3,4)oxadiazol-2-ylmethyl)-pyrrolidin-1-yl)-methanone) diluted in PBS and 100 μL of the cell suspension). Reactions were run for 60 min at room temperature and terminated by filtration through GF/C filter plates (PerkinElmer, Cat. #6005174) presoaked in 0.3% polyethylenimine using the cell harvester (PerkinElmer Filtermate). The plates were washed 3 times by aspirating 30 ml PBS through the plates. Plates were dried in 55° C. oven for 60 min, scintillation fluid was added, and the radioactivity was counted on a Topcount (Packard). […]

A further assay has as its target human orexin 2 receptor (Homo sapiens (Human), UniProt O43614). Kind of assay: Human orexin 2 receptor radioligand binding ([3H]-EMPA competition). To be noted: HEK293 stably expressing human orexin 2 receptor; 2 nM [3H]-EMPA; averages of 2-20 runs; read-out: hOX2 Ki. Put shortly: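 Membranes-free whole HEK293 cells stably expressing human OX2 receptor incubated with [3H]-EMPA and compound (7 concentrations, 0.1 nM–10 μM, ≤0.1% DMSO) for 60 min at room temperature; nonspecific binding with 10 μM almorexant. Filtration and scintillation counting; one-site IC50 converted to Ki using predetermined Kd, triplicates averaged over 2-20 runs.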

The target of another assay is rat orexin 1 receptor (Rattus norvegicus, UniProt P56718). Briefly: Rat orexin 1 receptor radioligand binding (competitive). Particulars: HEK293 cells stably expressing rat orexin 1 receptor; 4 nM radioligand; averages of 2-20 runs; read-out: rOX1 Ki. Summed up: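 Competition binding used HEK293 cells expressing rat OX1 or CHO cells expressing human OX1, with 4 nM final [3H]-labelled thiazolyl-oxadiazolyl-pyrrolidinyl methanone radioligand in PBS. Compounds were tested at 7 concentrations (0.1 nM–10 μM) for 60 min at room temperature, then filtered; 10 μM almorexant defined nonspecific binding. Ki was derived from the one-site IC50 and the radioligand Kd.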

SMILES strings stand for the structures.

Sequence of human orexin 1 receptor (O43613 whole entry): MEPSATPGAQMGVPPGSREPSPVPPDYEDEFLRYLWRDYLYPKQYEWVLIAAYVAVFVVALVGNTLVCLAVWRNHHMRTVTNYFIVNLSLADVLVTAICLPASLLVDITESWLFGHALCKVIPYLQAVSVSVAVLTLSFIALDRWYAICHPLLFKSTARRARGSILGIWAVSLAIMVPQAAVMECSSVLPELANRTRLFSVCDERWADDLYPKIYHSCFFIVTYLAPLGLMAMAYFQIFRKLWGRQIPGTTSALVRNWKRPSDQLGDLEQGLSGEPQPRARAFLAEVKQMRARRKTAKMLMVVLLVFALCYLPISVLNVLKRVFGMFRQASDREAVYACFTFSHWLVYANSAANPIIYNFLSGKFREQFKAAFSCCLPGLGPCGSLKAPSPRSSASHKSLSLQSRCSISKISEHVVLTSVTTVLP
Sequence of human orexin 2 receptor (O43614 whole entry): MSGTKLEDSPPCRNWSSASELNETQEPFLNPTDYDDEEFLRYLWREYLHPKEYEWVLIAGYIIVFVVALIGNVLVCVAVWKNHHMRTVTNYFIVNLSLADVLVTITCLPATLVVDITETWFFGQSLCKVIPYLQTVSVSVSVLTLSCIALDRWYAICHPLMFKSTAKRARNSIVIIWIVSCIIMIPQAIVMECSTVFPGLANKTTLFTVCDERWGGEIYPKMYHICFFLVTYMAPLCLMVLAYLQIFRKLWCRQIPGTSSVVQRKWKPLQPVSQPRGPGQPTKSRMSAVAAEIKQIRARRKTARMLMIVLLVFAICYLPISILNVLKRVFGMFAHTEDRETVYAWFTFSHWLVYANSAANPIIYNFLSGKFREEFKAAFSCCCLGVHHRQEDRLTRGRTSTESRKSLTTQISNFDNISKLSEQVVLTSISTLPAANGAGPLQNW

For the compound `C[C@@H]1[C@H]2C[C@@H](Oc3ccc(C(F)(F)F)cn3)[C@H](C2)N1C(=O)c1cc(F)ccc1-n1nccn1` (relative stereo) [Example 29, (5-fluoro-2-(2H-1,2,3-triazol-2-yl)phenyl)((1S*,3R*,4R*,6R*)-3-methyl-6-((5-(trifluoromethyl)pyridin-2-yl)oxy)-2-azabicyclo[2.2.1]heptan-2-yl)methanone], the results for the Ki on human orexin 1 receptor, at human orexin 2 receptor and on rat orexin 1 receptor were 14 nM, 836 nM and 5 nM, respectively.
As to `C[C@@H]1[C@H]2C[C@@H](Oc3ccc(C(F)(F)F)cn3)[C@H](C2)N1C(=O)c1ncccc1-c1ncccn1` (relative stereo) [Example 32, ((1S*,3R*,4R*,6R*)-3-methyl-6-((5-(trifluoromethyl)pyridin-2-yl)oxy)-2-azabicyclo[2.2.1]heptan-2-yl)(3-(pyrimidin-2-yl)pyridin-2-yl)methanone], the Ki stood at 8 nM on human orexin 1 receptor, 1900 nM on human orexin 2 receptor and 6 nM at rat orexin 1 receptor.
For `Cc1cnc(C(=O)N2[C@H](C)[C@H]3C[C@@H](Oc4ccc(C(F)(F)F)cn4)[C@@H]2C3)c(-c2ncccc2F)c1` (relative stereo) [Example 34, (3-fluoro-5′-methyl-[2,3′-bipyridin]-2′-yl)((1S*,3R*,4R*,6R*)-3-methyl-6-((5-(trifluoromethyl)pyridin-2-yl)oxy)-2-azabicyclo[2.2.1]heptan-2-yl)methanone], the Ki turned out to be 14 nM on human orexin 1 receptor, 6300 nM on human orexin 2 receptor and 11 nM on rat orexin 1 receptor.
Turning to `C[C@@H]1[C@H]2C[C@@H](Oc3ccc(C(F)(F)F)nc3)[C@H](C2)N1C(=O)c1cccc(F)c1-n1nccn1` (relative stereo) [Example 38, (3-fluoro-2-(2H-1,2,3-triazol-2-yl)phenyl)((1S*,3R*,4R*,6R*)-3-methyl-6-((6-(trifluoromethyl)pyridin-3-yl)oxy)-2-azabicyclo[2.2.1]heptan-2-yl)methanone], the Ki on human orexin 1 receptor was found to be 283 nM; at human orexin 2 receptor, 4900 nM; on rat orexin 1 receptor, 216 nM.
The corresponding values for `Cc1cccc(C(=O)N2[C@H](C)[C@H]3C[C@@H](Oc4ccc(C(F)(F)F)nc4)[C@@H]2C3)c1-n1nccn1` (relative stereo) [Example 39, (3-methyl-2-(2H-1,2,3-triazol-2-yl)phenyl)((1S*,3R*,4R*,6R*)-3-methyl-6-((6-(trifluoromethyl)pyridin-3-yl)oxy)-2-azabicyclo[2.2.1]heptan-2-yl)methanone] are 123 nM, 3600 nM and 90 nM.
Turning to `Cc1ccc(-n2nccn2)c(C(=O)N2[C@H](C)[C@H]3C[C@@H](Oc4cnc(C(F)(F)F)cn4)[C@@H]2C3)n1` (relative stereo) [Example 46, (6-methyl-3-(2H-1,2,3-triazol-2-yl)pyridin-2-yl)((1S*,3R*,4R*,6R*)-3-methyl-6-((5-(trifluoromethyl)pyrazin-2-yl)oxy)-2-azabicyclo[2.2.1]heptan-2-yl)methanone], the Ki on human orexin 1 receptor was found to be 29 nM; at human orexin 2 receptor, 4300 nM; at rat orexin 1 receptor, 24 nM.
For the compound `C[C@@H]1[C@H]2C[C@@H](Oc3cnc(C(F)(F)F)cn3)[C@H](C2)N1C(=O)c1ncccc1-n1nccn1` (relative stereo) [Example 47, (3-(2H-1,2,3-triazol-2-yl)pyridin-2-yl)((1S*,3R*,4R*,6R*)-3-methyl-6-((5-(trifluoromethyl)pyrazin-2-yl)oxy)-2-azabicyclo[2.2.1]heptan-2-yl)methanone], the Ki on human orexin 1 receptor was 151 nM; at human orexin 2 receptor it was > 10000 nM; on rat orexin 1 receptor, 68 nM.
Regarding `Cc1cnc(-n2nccn2)c(C(=O)N2[C@H](C)[C@H]3C[C@@H](Oc4cnc(C(F)(F)F)cn4)[C@@H]2C3)c1` (relative stereo) [Example 50, (5-methyl-2-(2H-1,2,3-triazol-2-yl)pyridin-3-yl)((1S*,3R*,4R*,6R*)-3-methyl-6-((5-(trifluoromethyl)pyrazin-2-yl)oxy)-2-azabicyclo[2.2.1]heptan-2-yl)methanone], the Ki was 30 nM on human orexin 1 receptor, > 10000 nM on human orexin 2 receptor and 23 nM at rat orexin 1 receptor.

For orientation: Ki means the dissociation constant of the complex between target and ligand, obtained from inhibition or displacement.
